Assay results reported in patent US20250032490A1, “THERAPEUTIC REGIMENS FOR TREATMENT OF PAROXYSMAL NOCTURNAL HEMOGLOBINURIA” (Achillion Pharmaceuticals, Inc., priority 2017, published 2025).

Tested on: rabbit erythrocytes
Assay: CAP-mediated hemolysis assay with rabbit erythrocytes
Format: cell-based
Conditions: Oryctolagus cuniculus, Erythrocyte; for inhibition at 0.00234 µM: Compound 1 0.00234 μM; for inhibition at 0.00469 µM: Compound 1 0.00469 μM; for inhibition at 0.00938 µM: Compound 1 0.00938 μM; for inhibition at 0.0188 µM: Compound 1 0.0188 μM; for inhibition at 0.0375 µM: Compound 1 0.0375 μM; for inhibition at 0.075 µM: Compound 1 0.075 μM; for inhibition at 0.15 µM: Compound 1 0.15 μM; for inhibition at 0.75 µM: Compound 1 0.75 μM
Method: Inhibition was analyzed by the method of Prichard and Shipman (Prichard, M. N. and C. Shipman, Jr. A Three-Dimensional Model to Analyze Drug-Drug Interactions. Antiviral Research 1990, 14:181-205) Three-dimensional surface graphs of each experiment were generated and analyzed using an Excel spreadsheet program adapted from the MacSynergy II spreadsheet (University of Alabama, Birmingham, AL). The X-axis and Y-axis of each surface graph represent the concentrations of the two test compounds, and the Z-axis represents the difference between measured inhibition and a theoretically determined additive inhibition. For an additive relationship, the surface graph resembles a horizontal plane at Z=0, whereas positive surface peaks indicate greater inhibition than expected and therefore synergy, and negative surface peaks indicate less inhibition than expected and therefore antagonism.
Synergy and antagonism volumes were calculated separately as the summed volumes of peaks respectively above and below the Z=0 plane. Volumes were determined using 95% confidence limits to assure significance.
Inhibition was analyzed by the method of Chou and Talalay (Chou, T.-C. and P. Talalay. Analysis of Combined Drug Effects: A New Look at a Very Old Problem. Trends Pharmacol. Sci. 1983, 4:450-454; Chou, T. C. Theoretical basis, experimental design, and computerized simulation of synergism and antagonism in drug combination studies. Pharmacological Reviews 2006, 58:621-681). Analysis using the median-effect equation of Chou and Talalay was performed with CompuSyn software (ComboSyn, Inc, Paramus, NJ). […] Three constant ratios were analyzed in each experiment, centered approximately at the ratio of the individual IC50 values for the two compounds and ranging two-fold higher and lower. […] Combination index (CI) values were determined at inhibition values of 50%, 75%, and 90%. Interactions were considered additive for CI values between 0.9 and 1.1. […] Interactions were considered slightly antagonistic for CI values between 1.1 and 1.2, moderately antagonistic for CI values between 1.2 and 1.45; antagonistic for CI values between 1.45 and 3.3, and strongly antagonistic for CI values between 3.3 and 10.
Compstatin was obtained from Tocris Bioscience (Bristol, UK). The murine monoclonal antibody to human C5, isotype IgGIK, was obtained as product number A217 from Quidel (San Diego, CA). FUT-175 (nafamostat) was obtained from Calbiochem EMD Millipore (Billerica, MA).
Anti-C5 (murine monoclonal antibody to human C5, isotype IgGIK, product No. A217 from Quidel, San Diego, CA) was obtained as a 1.1 mg/mL stock in buffered saline. Gelatin veronal buffer (GVB) without Ca^++ and Mg (GVB^0), 100 mM MgCl2+100 mM EGTA (MgEGTA), normal human serum (NHS), and 5×10^8/mL rabbit erythrocytes (Er) were obtained from Complement Technology Inc. (Tyler, TX).
GVB^0·MgEGTA was prepared by mixing GVB^0 and 100 mM MgEGTA in a 9:1 ratio. Er cells were used within two weeks of purchase; before each assay cells were collected by centrifugation at 800×g and 4° C. for 3 minutes and the buffer was replaced with equal volume fresh cold GVB^0·MgEGTA.
Each of the 64 possible combinations of compounds at varying concentrations was tested in duplicate or triplicate wells. […] 50 μL GVB^0·MgEGTA was added to each well, followed by 50 μL 20% NHS in GVB^0·MgEGTA. The plates were sealed, mixed on a microtiter plate shaker, and incubated at 37° C. for 15 minutes. 20 μL Er was then added to each well and the plates were sealed, mixed, and incubated at 37° C. for 30 minutes with an added shaking at 15 minutes. The following controls were each included in quadruplicate: 2.4 μL DMSO+120 μL GVB^0·MgEGTA (representing background signal); 2.4 μL DMSO+100 μL GVB^0·MgEGTA+20 μL Er (no serum, representing 0% CAP-mediated lysis); 2.4 μL DMSO+50 μL GVB^0·MgEGTA+50 μL 20% NHS+20 μL Er (no compound, representing 100% CAP-mediated lysis); and 2.4 μL DMSO+100 μL H2O+20 μL Er (osmotic lysis, representing maximal lysis). […]

[1] = Experiment 2, Compstatin 0-30 μM
[2] = Experiment 3, Compstatin 0-30 μM
[3] = Experiment 4, Compstatin 0-30 μM

CC(=O)c1nn(CC(=O)N2C[C@H](F)C[C@H]2C(=O)Nc2cccc(Br)n2)c2ccc(-c3cnc(C)nc3)cc12 [Compound 1, (2S,4R)-1-(2-(3-acetyl-5-(2-methylpyrimidin-5-yl)-1H-indazol-1-yl)acetyl)-N-(6-bromopyridin-2-yl)-4-fluoropyrrolidine-2-carboxamide]
inhibition at 0.00234 µM [1]: 0% | inhibition at 0.00234 µM (Experiment 2, FUT-175 0-40 μM): 5% | inhibition at 0.00469 µM [1]: 0% | inhibition at 0.00469 µM (Experiment 2, FUT-175 0-40 μM): 7% | inhibition at 0.00938 µM [1]: 3.2% | inhibition at 0.00938 µM (Experiment 2, FUT-175 0-40 μM): 13% | inhibition at 0.0188 µM [1]: 16% | inhibition at 0.0188 µM (Experiment 2, FUT-175 0-40 μM): 31% | inhibition at 0.0375 µM [1]: 45% | inhibition at 0.0375 µM (Experiment 2, FUT-175 0-40 μM): 70% | inhibition at 0.075 µM [1]: 72% | inhibition at 0.15 µM [1]: 91% | inhibition at 0.15 µM (Experiment 2, FUT-175 0-40 μM): 98% | inhibition at 0.75 µM (Experiment 2, FUT-175 0-40 μM): 95% | inhibition at 0.00234 µM [2]: 3% | inhibition at 0.00234 µM (Experiment 3, FUT-175 0-40 μM): 11% | inhibition at 0.00469 µM [2]: 7.7% | inhibition at 0.00469 µM (Experiment 3, FUT-175 0-40 μM): 17% | inhibition at 0.00938 µM [2]: 22% | inhibition at 0.00938 µM (Experiment 3, FUT-175 0-40 μM): 32% | inhibition at 0.0188 µM [2]: 41% | inhibition at 0.0188 µM (Experiment 3, FUT-175 0-40 μM): 54% | inhibition at 0.037 µM (Experiment 3, Compound 1 0.037 μM, FUT-175 0-40 μM): 94% | inhibition at 0.0375 µM [2]: 73% | inhibition at 0.075 µM [2]: 96% | inhibition at 0.15 µM [2]: 98% | inhibition at 0.15 µM (Experiment 3, FUT-175 0-40 μM): 98% | inhibition at 0.75 µM (Experiment 3, FUT-175 0-40 μM): 98% | inhibition at 0.00234 µM [3]: 0.8% | inhibition at 0.00469 µM [3]: 7.1% | inhibition at 0.00938 µM [3]: 20% | inhibition at 0.0188 µM [3]: 41% | inhibition at 0.0375 µM [3]: 81% | inhibition at 0.075 µM [3]: 97% | inhibition at 0.15 µM [3]: 99% | inhibition at 0.00234 µM (Experiment #1, FUT-175 0-40 μM): 4.5% | inhibition at 0.00469 µM (Experiment #1, FUT-175 0-40 μM): 8.3% | inhibition at 0.0093 µM (Experiment #1, Compound 1 0.0093 μM, FUT-175 0-40 μM): 16% | inhibition at 0.0188 µM (Experiment #1, FUT-175 0-40 μM): 31% | inhibition at 0.0234 µM (Experiment #1, Compound 1 0.0234 μM, Compstatin 0-30 μM): 27% | inhibition at 0.0375 µM (Experiment #1, FUT-175 0-40 μM): 44% | inhibition at 0.0469 µM (Experiment #1, Compound 1 0.0469 μM, Compstatin 0-30 μM): 44% | inhibition at 0.0938 µM (Experiment #1, Compound 1 0.0938 μM, Compstatin 0-30 μM): 75% | inhibition at 0.15 µM (Experiment #1, FUT-175 0-40 μM): 96% | inhibition at 0.188 µM (Experiment #1, Compound 1 0.188 μM, Compstatin 0-30 μM): 91% | inhibition at 0.375 µM (Experiment #1, Compound 1 0.375 μM, Compstatin 0-30 μM): 98% | inhibition at 0.75 µM (Experiment #1, Compstatin 0-30 μM): 98% | inhibition at 0.75 µM (Experiment #1, FUT-175 0-40 μM): 79% | inhibition at 1.5 µM (Experiment #1, Compound 1 1.5 μM, Compstatin 0-30 μM): 98%
